# Literature values, collected in patent publication US20200068939A1, “Nutritional compositions to increase and sustain blood ketone levels” (JHO Intellectual Property Holdings LLC, priority 2018, published 2020).
# Assays:
# [1] = acute ingestion, 15 min to 6 hr
# [2] = not given; remark: listed apart in the source
Structure (SMILES),stimulation of ketone production (2.5 mg/kg given at breakfast),"plasma free fatty acids (2.5, 5.0 mg/kg given at breakfast)",bHB in short-term nutritional ketosis [1],blood βHB concentration at the start of the OGTT ([2]; 482 mg/kg 30 min before glucose bolus),"blood βHB concentration at the end of the OGTT ([2]; 482 mg/kg 30 min before glucose bolus, end of 2 h test)","reduction in 2 h AUC for serum FFAs ([2]; 482 mg/kg, 2 h)","reduction of plasma glucose AUC ([2]; 482 mg/kg, over the 2 h period)"
Cn1c(=O)c2c(ncn2C)n(C)c1=O [Caffeine],+88%,raised plasma free fatty acids,–,–,–,–,–
"C[C@@H](O)CCOC(=O)C[C@@H](C)O [KME, (R)-3-hydroxybutyl (R)-3-hydroxybutyrate]",–,–,> 1 mM,~3 mM,~1.5 mM,44%,16%
